Molecular target: T1, FAAH (Rattus norvegicus, UniProt P97612)
T1 construct: Preparation of Rat Brain Membranes Preparations (FAAH Enzyme Solution); from tissue; host or cells: rat cerebrum (brain membrane preparation)
T1 sequence (P97612 1-579): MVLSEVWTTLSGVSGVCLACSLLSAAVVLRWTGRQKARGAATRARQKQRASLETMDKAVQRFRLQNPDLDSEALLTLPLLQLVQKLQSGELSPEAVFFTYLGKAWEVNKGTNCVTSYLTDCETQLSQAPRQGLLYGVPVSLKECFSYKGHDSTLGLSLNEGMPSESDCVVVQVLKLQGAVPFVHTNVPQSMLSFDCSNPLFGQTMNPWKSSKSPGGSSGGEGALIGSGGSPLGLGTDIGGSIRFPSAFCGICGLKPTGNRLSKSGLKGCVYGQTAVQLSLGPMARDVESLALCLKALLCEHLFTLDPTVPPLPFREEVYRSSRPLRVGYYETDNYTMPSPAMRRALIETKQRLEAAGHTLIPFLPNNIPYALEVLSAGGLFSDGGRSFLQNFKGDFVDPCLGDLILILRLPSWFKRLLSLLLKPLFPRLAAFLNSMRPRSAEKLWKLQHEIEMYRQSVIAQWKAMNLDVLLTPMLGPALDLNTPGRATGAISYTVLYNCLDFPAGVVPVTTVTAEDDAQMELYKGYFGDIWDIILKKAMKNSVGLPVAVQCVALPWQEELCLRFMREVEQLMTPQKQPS
Assay: Determination of FAAH inhibitory activity in rat (rat brain membrane preparations, [3H]-anandamide hydrolysis)
Format: biochemical
Conditions: rat brain membrane preparations; for inhibition at 0.1 µM: 100 nM test substance, read-out: FAAH Inhibition, Inhibition Rate at 100 nM; for IC50: test substance 0.1 nM to 1 μM, read-out: FAAH Inhibition IC50
In short: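 Compounds tested from 0.1 nM to 1 μM to derive IC50 against FAAH hydrolysis in rat brain membrane preparations (100 μg/mL). A 10-min 37 °C preincubation was followed by 10 min with [3H]-anandamide (2 nM) mixed with 2 μM unlabelled anandamide. Radioactive ethanolamine was extracted into the water/methanol layer and counted.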

Row | SMILES | inhibition at 0.1 µM [%] | IC50 [nM]
1 | Cn1c(=O)n(C(=O)N2CCC2)c2cnc(COc3ccc(F)cc3)nc21 [Example 402, 7-(azetidin-1-ylcarbonyl)-2-[(4-fluorophenoxy)methyl]-9-methyl-7,9-dihydro-8H-purine-8-one] | 103 | 10
2 | COc1cccc(OCc2ncc3c(n2)n(C)c(=O)n3C(=O)N2CCC2)c1 [Example 404, 7-(Azetidin-1-ylcarbonyl)-2-[(3-methoxyphenoxy)methyl]-9-methyl-7,9-dihydro-8H-purine-8-one] | 96 | 10
3 | CCc1cccc(OCc2ncc3c(n2)n(C(=O)N(C)C)c(=O)n3C)c1 [Example 413] | 98 | 3
4 | CN(C)C(=O)n1c(=O)n(C)c2cnc(COc3cccc(Cl)c3)nc21 [Example 414] | 84 | 64
5 | Cn1c(=O)n(C(=O)N2CCC2)c2nc(COc3ccccc3)ncc21 [Example 415] | 41 | 148
6 | Cc1ccccc1OCc1ncc2c(n1)n(C(=O)N1CCC1)c(=O)n2C [Example 416] | 50 | 112
7 | Cc1cccc(OCc2ncc3c(n2)n(C(=O)N2CCC2)c(=O)n3C)c1 [Example 417] | 66 | 33
8 | CCc1cccc(OCc2ncc3c(n2)n(C(=O)N2CCC2)c(=O)n3C)c1 [Example 418] | 75 | 35
9 | Cn1c(=O)n(C(=O)N2CCC2)c2nc(COc3cccc(Cl)c3)ncc21 [Example 419] | 81 | 31
10 | Cn1c(=O)n(C(=O)N2CCC2)c2nc(COc3cccc(F)c3)ncc21 [Example 420] | 60 | 65
11 | CN(C)C(=O)n1c(=O)n(C)c2cnc(COc3ccccc3Cl)nc21 [Example 421] | 85 | 95
12 | CN(C)C(=O)n1c(=O)n(C)c2cnc(COc3cccc(C(F)(F)F)c3)nc21 [Example 422] | 88 | 22
13 | CN(C)C(=O)n1c(=O)n(C)c2cnc(COc3cccc(OC(F)(F)F)c3)nc21 [Example 423] | 112 | 3
14 | Cc1ccc(OCc2ncc3c(n2)n(C(=O)N2CCC2)c(=O)n3C)cc1 [Example 424] | 80 | 26
15 | Cn1c(=O)n(C(=O)N2CCC2)c2nc(COc3ccccc3F)ncc21 [Example 425] | 79 | 12
16 | Cn1c(=O)n(C(=O)N2CCC2)c2nc(COc3ccc(F)cc3)ncc21 [Example 426] | 84 | 9
17 | Cn1c(=O)n(C(=O)N2CCC2)c2nc(COc3ccccc3Cl)ncc21 [Example 427] | 92 | 19
18 | Cn1c(=O)n(C(=O)N2CCC2)c2nc(COc3ccc(Cl)cc3)ncc21 [Example 428] | 123 | 10
19 | CN(C)C(=O)n1c(=O)n(C)c2cnc(COc3ccccc3C(F)(F)F)nc21 [Example 429] | 84 | 23
20 | CN(C)C(=O)n1c(=O)n(C)c2cnc(COc3ccccc3OC(F)(F)F)nc21 [Example 430] | 80 | 24
21 | CN(C)C(=O)n1c(=O)n(C)c2cnc(COc3cccc(OC(F)F)c3)nc21 [Example 431] | 60 | 94
22 | Cn1c(=O)n(C(=O)N2CCC2)c2nc(COc3ccc(C(F)(F)F)cc3)ncc21 [Example 434] | 95 | 8
23 | Cn1c(=O)n(C(=O)N2CCC2)c2nc(COc3ccccc3OC(F)(F)F)ncc21 [Example 435] | 94 | 12
24 | Cn1c(=O)n(C(=O)N2CCC2)c2cnc(COc3cccc(OC(F)F)c3)nc21 [Example 437] | 96 | 11
25 | COCc1ncc2c(n1)n(C)c(=O)n2C(=O)N1CC(c2ccccc2)C1 [Example 438, 2-(methoxymethyl)-9-methyl-7-[(3-phenylazetidin-1-yl)carbonyl]-7,9-dihydro-8H-purine-8-one] | 86 | 34
26 | COCc1ncc2c(n1)n(C)c(=O)n2C(=O)N1CC(c2ccc(F)cc2)C1 [Example 439, 7-{[3-(4-Fluorophenyl)azetidin-1-yl]carbonyl}-2-(methoxymethyl)-9-methyl-7,9-dihydro-8H-purine-8-one] | 104 | 5
27 | COCc1ncc2c(n1)n(C)c(=O)n2C(=O)N1CC(c2cccc(F)c2)C1 [Example 440, 7-{[3-(3-Fluorophenyl)azetidin-1-yl]carbonyl}-2-(methoxymethyl)-9-methyl-7,9-dihydro-8H-purine-8-one] | 88 | 21
28 | COCc1ncc2c(n1)n(C)c(=O)n2C(=O)N1CC(c2ccccc2F)C1 [Example 441, 7-{[3-(2-Fluorophenyl)azetidin-1-yl]carbonyl}-2-(methoxymethyl)-9-methyl-7,9-dihydro-8H-purine-8-one] | 74 | 37
29 | COCc1ncc2c(n1)n(C)c(=O)n2C(=O)N1CC(c2cccc(C(F)(F)F)c2)C1 [Example 443, 2-(Methoxymethyl)-9-methyl-7-({[3-(3-trifluoromethyl)phenyl]azetidin-1-yl}carbonyl)-7,9-dihydro-8H-purine-8-one] | 98 | 7

Continued, values first:

Row | inhibition at 0.1 µM [%] | IC50 [nM] | SMILES
30 | 90 | 12 | COCc1ncc2c(n1)n(C)c(=O)n2C(=O)N1CC(c2ccccc2Cl)C1 [Example 453, 7-{[3-(2-Chlorophenyl)azetidin-1-yl]carbonyl}-2-(methoxymethyl)-9-methyl-7,9-dihydro-8H-purine-8-one]
31 | 89 | 6 | COCc1ncc2c(n1)n(C)c(=O)n2C(=O)N1CC(c2ccc(F)cc2F)C1 [Example 454, 7-{[3-(2,4-Difluorophenyl)azetidin-1-yl]carbonyl}-2-(methoxymethyl)-9-methyl-7,9-dihydro-8H-purine-8-one]
32 | 104 | 1 | COCc1ncc2c(n1)n(C)c(=O)n2C(=O)N1CC(c2ccc(F)c(C)c2)C1 [Example 455, 7-{[3-(4-Fluoro-3-methylphenyl)azetidin-1-yl]carbonyl}-2-(methoxymethyl)-9-methyl-7,9-dihydro-8H-purine-8-one]
33 | 99 | 1 | COCc1ncc2c(n1)n(C)c(=O)n2C(=O)N1CC(c2ccc(OCc3ccccc3)cc2)C1 [Example 456, 7-({3-[4-(Benzyloxy)phenyl]azetidin-1-yl}carbonyl)-2-(methoxymethyl)-9-methyl-7,9-dihydro-8H-purine-8-one]
34 | 120 | 1 | COCc1ncc2c(n1)n(C)c(=O)n2C(=O)N1CC(c2ccc(OC(F)(F)F)cc2)C1 [Example 458, 2-(Methoxymethyl)-9-methyl-7-({3-[4-(trifluoromethoxy)phenyl]azetidin-1-yl}carbonyl)-7,9-dihydro-8H-purine-8-one]
35 | 108 | 9 | COCc1ncc2c(n1)n(C)c(=O)n2C(=O)N1CC(c2cccc(OC)c2)C1 [Example 459, 2-(Methoxymethyl)-7-{[3-(3-methoxyphenyl)azetidin-1-yl]carbonyl}-9-methyl-7,9-dihydro-8H-purine-8-one]
36 | 108 | 11 | CCOCc1ncc2c(n1)n(C)c(=O)n2C(=O)N1CC(c2ccccc2)C1 [Example 460, 2-(Ethoxymethyl)-9-methyl-7-[(3-phenylazetidin-1-yl)carbonyl]-7,9-dihydro-8H-purine-8-one]
37 | 113 | 10 | CCOCc1ncc2c(n1)n(C)c(=O)n2C(=O)N1CC(c2cccc(F)c2)C1 [Example 462, 2-(Ethoxymethyl)-7-{[3-(3-fluorophenyl)azetidin-1-yl]carbonyl}-9-methyl-7,9-dihydro-8H-purine-8-one]
38 | 136 | 10 | CCOCc1ncc2c(n1)n(C)c(=O)n2C(=O)N1CC(c2ccc(OCC)cc2)C1 [Example 463, 2-(Ethoxymethyl)-7-{[3-(4-ethoxyphenyl)azetidin-1-yl]carbonyl}-9-methyl-7,9-dihydro-8H-purine-8-one]
39 | 96 | 10 | CCOCc1ncc2c(n1)n(C)c(=O)n2C(=O)N1CC(c2ccccc2F)C1 [Example 465, 2-(Ethoxymethyl)-7-{[3-(2-fluorophenyl)azetidin-1-yl]carbonyl}-9-methyl-7,9-dihydro-8H-purine-8-one]
40 | 71 | 54 | COCc1ncc2c(n1)n(C)c(=O)n2C(=O)N1CC[C@@H](Oc2ccccc2F)C1 [Example 474]
41 | 46 | – | COCc1ncc2c(n1)n(C)c(=O)n2C(=O)N1CC[C@@H](Oc2cccc(C)c2)C1 [Example 475]
42 | 76 | 57 | COCc1ncc2c(n1)n(C)c(=O)n2C(=O)N1CC[C@@H](Oc2ccccc2C)C1 [Example 476]
